Columns and labels:
[1] = test system: rice; assay: Test B flood test rice; type: in vivo, Oryza sativa
Method in brief: (§1)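 Read-out is a visual response score from 0 (no effect) to 10 (complete control), assigned by comparison with untreated controls. Treatment was applied at the 2-leaf stage, and plants stayed in the greenhouse for twelve to sixteen days before scoring.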

[2] = test system: purple nutsedge; assay: Test B pre/postemergence purple nutsedge; type: in vivo, Cyperus rotundus; conditions: Preemergence, scale of 0 to 10 where 0 is no effect and 10 is complete control
Method in brief: (§2)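 Test chemicals in a non-phytotoxic solvent mixture with surfactant were sprayed preemergence onto planted seeds and postemergence onto plants 2 to 18 cm tall (1- to 4-leaf stage). After twelve to sixteen days in a greenhouse, injury was visually rated against untreated controls from 0 (no effect) to 10 (complete control).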

[3] = test system: wheat; assay: Test B pre/postemergence wheat; type: in vivo, Triticum aestivum; conditions: Preemergence, scale of 0 to 10 where 0 is no effect and 10 is complete control
Method in brief: as §2

[4] = test system: wild oat; assay: Test B pre/postemergence wild oat; type: in vivo, Avena fatua; conditions: Preemergence, scale of 0 to 10 where 0 is no effect and 10 is complete control
Method in brief: as §2

[5] = test system: smallflower flatsedge; assay: Test B flood test smallflower flatsedge; type: in vivo, Cyperus difformis
Method in brief: as §1

[6] = test system: giant foxtail; assay: Test B pre/postemergence giant foxtail; type: in vivo, Setaria faberii; conditions: Preemergence, scale of 0 to 10 where 0 is no effect and 10 is complete control
Method in brief: as §2

[7] = test system: bamyardgrass; assay: Test B flood test barnyardgrass; type: in vivo, Echinochloa crus-galli
Method in brief: as §1

[8] = test system: blackgrass; assay: Test B pre/postemergence blackgrass; type: in vivo, Alopecurus myosuroides; conditions: Preemergence
Method in brief: as §2

[9] = test system: corn; assay: Test B pre/postemergence corn; type: in vivo, Zea mays; conditions: Preemergence
Method in brief: as §2

[10] = test system: rape; assay: Test B pre/postemergence rape; type: in vivo, Brassica napus; conditions: Preemergence, scale of 0 to 10 where 0 is no effect and 10 is complete control
Method in brief: as §2

[11] = test system: cocklebur; assay: Test B pre/postemergence cocklebur; type: in vivo, Xanthium strumarium; conditions: Preemergence
Method in brief: as §2

[12] = test system: velvetleaf; assay: Test B pre/postemergence velvetleaf; type: in vivo, Abutilon theophrasti; conditions: Preemergence, scale of 0 to 10 where 0 is no effect and 10 is complete control
Method in brief: as §2

[13] = test system: crabgrass; assay: Test B pre/postemergence crabgrass; type: in vivo, Digitaria sanguinalis; conditions: Preemergence
Method in brief: as §2

[14] = test system: morningglory; assay: Test B pre/postemergence morningglory; type: in vivo, Ipomoea hederacea; conditions: Preemergence, scale of 0 to 10 where 0 is no effect and 10 is complete control
Method in brief: as §2

[15] = test system: pigweed; assay: Test B pre/postemergence pigweed; type: in vivo, Amaranthus retroflexus; conditions: Preemergence, scale of 0 to 10 where 0 is no effect and 10 is complete control
Method in brief: as §2

[16] = test system: sugar beet; assay: Test B pre/postemergence sugar beet; type: in vivo, Beta vulgaris; conditions: Preemergence, scale of 0 to 10 where 0 is no effect and 10 is complete control
Method in brief: as §2

[17] = test system: soybean; assay: Test B pre/postemergence soybean; type: in vivo, Glycine max; conditions: Preemergence, scale of 0 to 10 where 0 is no effect and 10 is complete control
Method in brief: as §2

[18] = test system: duck salad; assay: Test B flood test duck salad; type: in vivo, Heteranthera limosa
Method in brief: as §1

[19] = test system: bedstraw; assay: Test B pre/postemergence bedstraw; type: in vivo, Galium aparine; conditions: Preemergence
Method in brief: as §2

[20] = test system: surinam grass; assay: Test B pre/postemergence surinam grass; type: in vivo, Brachiaria decumbens; conditions: Preemergence
Method in brief: as §2

[21] = Rate 62 g/ha, flood test species, Pre-emergence, visual evaluation after twelve to sixteen days
[22] = Rate 125 g/ha, under heading Pre-emergence, flood test species, visual evaluation after twelve to sixteen days
[23] = Rate 250 g/ha, Pre-emergence (flood test species), scale 0 to 10, 0 is no effect, 10 is complete control
[24] = Rate 500 g/ha, Pre-emergence section of Table B, 0 to 10 scale (0 no effect, 10 complete control)
[25] = Rate 62 g/ha, scale of 0 to 10 where 0 is no effect and 10 is complete control
[26] = Rate 125 g/ha, scale of 0 to 10 where 0 is no effect and 10 is complete control
[27] = Rate 250 g/ha, scale 0 to 10 (0 no effect, 10 complete control)
[28] = Rate 500 g/ha, scale of 0 to 10 where 0 is no effect and 10 is complete control

Question: Which “Plant response rating, Rice (0 to 10 scale, 0 is no effect, 10 is complete control)” value [1, 21] does the source give for `CC(C)N(C(=O)n1oc(=O)n(C(C)C2CC2)c1=O)c1ccccc1` (stereo not drawn) [Compound 699] here?
Answer: 0

Question: And the “Rice plant response rating (0 to 10 scale, 0 is no effect, 10 is complete control)” value [1, 22]?
Answer: 0

Question: What about the “Rice plant response rating” value [1, 23] of the same compound?
Answer: 5

Question: And the “Rice plant response rating” value [1, 24]?
Answer: 4

Question: And the “Nutsedge plant response rating” value ([2]; Rate 62 g/ha)?
Answer: 0

Question: And the “Plant response rating, Nutsedge” value ([2]; Rate 125 g/ha)?
Answer: 0

Question: What about the “Wheat plant response rating” value ([3]; Rate 62 g/ha) of the same compound?
Answer: 0

Question: And the “Plant response rating, Wheat” value ([3]; Rate 125 g/ha)?
Answer: 3

Question: What about the “Wild oats plant response rating” value ([4]; Rate 62 g/ha) of the same compound?
Answer: 9

Question: And the “Plant response rating, Wild oats” value ([4]; Rate 125 g/ha)?
Answer: 10

Question: What about the “Plant response rating, S. Flatsedge (0 to 10 scale, 0 is no effect, 10 is complete control)” value [5, 21] of the same compound?
Answer: 6

Question: What about the “S. Flatsedge plant response rating (0 to 10 scale, 0 is no effect, 10 is complete control)” value [5, 22] of the same compound?
Answer: 7

Question: And the “S. Flatsedge plant response rating” value [5, 23]?
Answer: 9

Question: And the “S. Flatsedge plant response rating” value [5, 24]?
Answer: 8

Question: What about the “Giant foxtail plant response rating” value ([6]; Rate 62 g/ha) of the same compound?
Answer: 10

Question: What about the “Plant response rating, Giant foxtail” value ([6]; Rate 125 g/ha) of the same compound?
Answer: 10

Question: What about the “Plant response rating, Barnyardgrass (0 to 10 scale, 0 is no effect, 10 is complete control)” value [7, 21] of the same compound?
Answer: 4

Question: What about the “Barnyardgrass plant response rating (0 to 10 scale, 0 is no effect, 10 is complete control)” value [7, 22] of the same compound?
Answer: 4

Question: And the “Barnyardgrass plant response rating” value [7, 23]?
Answer: 8

Question: What about the “Barnyardgrass plant response rating” value [7, 24] of the same compound?
Answer: 8

Question: And the “Blackgrass plant response rating” value [8, 25]?
Answer: 8

Question: What about the “Plant response rating, Blackgrass” value [8, 26] of the same compound?
Answer: 10

Question: And the “Plant response rating, Blackgrass” value [8, 27]?
Answer: 10

Question: What about the “Plant response rating, Blackgrass” value [8, 28] of the same compound?
Answer: 10

Question: What about the “Corn plant response rating” value [9, 25] of the same compound?
Answer: 3

Question: What about the “Plant response rating, Corn” value [9, 26] of the same compound?
Answer: 6

Question: And the “Plant response rating, Corn” value [9, 27]?
Answer: 8

Question: And the “Rape plant response rating” value ([10]; Rate 62 g/ha)?
Answer: 0

Question: What about the “Plant response rating, Rape” value ([10]; Rate 125 g/ha) of the same compound?
Answer: 2

Question: What about the “Cocklebur plant response rating” value [11, 25] of the same compound?
Answer: 0

Question: And the “Plant response rating, Cocklebur” value [11, 26]?
Answer: 0

Question: What about the “Plant response rating, Cocklebur” value [11, 27] of the same compound?
Answer: 0

Question: And the “Plant response rating, Cocklebur” value [11, 28]?
Answer: 0

Question: And the “Velvetleaf plant response rating” value ([12]; Rate 62 g/ha)?
Answer: 0

Question: What about the “Plant response rating, Velvetleaf” value ([12]; Rate 125 g/ha) of the same compound?
Answer: 2

Question: What about the “Crabgrass plant response rating” value [13, 25] of the same compound?
Answer: 10

Question: What about the “Plant response rating, Crabgrass” value [13, 26] of the same compound?
Answer: 10

Question: What about the “Plant response rating, Crabgrass” value [13, 27] of the same compound?
Answer: 10

Question: What about the “Morningglory plant response rating” value ([14]; Rate 62 g/ha) of the same compound?
Answer: 2

Question: What about the “Plant response rating, Morningglory” value ([14]; Rate 125 g/ha) of the same compound?
Answer: 4

Question: What about the “Redroot pigweed plant response rating” value ([15]; Rate 62 g/ha) of the same compound?
Answer: 3

Question: What about the “Plant response rating, Redroot pigweed” value ([15]; Rate 125 g/ha) of the same compound?
Answer: 3

Question: And the “Sugarbeets plant response rating” value ([16]; Rate 62 g/ha)?
Answer: 3

Question: And the “Plant response rating, Sugarbeets” value ([16]; Rate 125 g/ha)?
Answer: 4

Question: And the “Soybean plant response rating” value ([17]; Rate 62 g/ha)?
Answer: 0

Question: What about the “Plant response rating, Soybean” value ([17]; Rate 125 g/ha) of the same compound?
Answer: 2

Question: What about the “Plant response rating, Ducksalad (0 to 10 scale, 0 is no effect, 10 is complete control)” value [18, 21] of the same compound?
Answer: 3

Question: And the “Ducksalad plant response rating (0 to 10 scale, 0 is no effect, 10 is complete control)” value [18, 22]?
Answer: 8

Question: What about the “Ducksalad plant response rating” value [18, 23] of the same compound?
Answer: 9

Question: And the “Ducksalad plant response rating” value [18, 24]?
Answer: 9

Question: What about the “Bedstraw plant response rating” value [19, 25] of the same compound?
Answer: 0

Question: And the “Plant response rating, Bedstraw” value [19, 27]?
Answer: 0

Question: What about the “Plant response rating, Bedstraw” value [19, 28] of the same compound?
Answer: 0

Question: And the “B. signalgrass plant response rating” value [20, 25]?
Answer: 8

Question: And the “Plant response rating, B. signalgrass” value [20, 26]?
Answer: 9

Question: And the “Plant response rating, B. signalgrass” value [20, 27]?
Answer: 9

Question: What about the “Plant response rating, B. signalgrass” value [20, 28] of the same compound?
Answer: 10

Reference: patent publication US6737383B1, “Herbicidal oxadiazolidines” (priority 1999, dated 2004)
